# Data taken from patent US6869945B2, “Pyrrolyl-and imidazolyl-acid amide derivatives useful as inhibitors of PDE4 isozymes” (Pfizer Inc, priority 2001, dated 2005).
# “Also recorded” adds a separate entry of the source.
# Tests used:
# [1] = in vivo; cited from earlier work
# [2] = tested on: PDE4; conditions: catalytic site (Sc); cited from earlier work
# [3] = cited from earlier work
# [4] = 54 subjects; cited from earlier work
# [5] = tested on: rhinorrhea in the antigen-challenged pig; conditions: cited from earlier work
# [6] = tested on: LPS-stimulated ex vivo TNF release and PHA induced lymphocyte proliferation; conditions: oral dose of 300 mg, cited from earlier work
# [7] = tested on: guinea-pig trachea; conditions: cited from earlier work
# [8] = tested on: guinea-pig macrophage PDE4; conditions: cited from earlier work
# [9] = tested on: dextran sulfate induced colitis; conditions: cited from earlier work; for effects in dextran sulfate induced colitis: rat
# [10] = tested on: TNF-α mRNA expression; conditions: mouse, in vivo; cited from earlier work
# [11] = 35 rheumatoid arthritis patients, t.i.d.; cited from earlier work
# [12] = tested on: epidermal basal cells; conditions: primary culture; cited from earlier work
# [13] = tested on: psoriatic epidermal slices and keratomed psoriatic epidermal slices; conditions: cited from earlier work
# [14] = in vivo; cited from earlier work; remark: listed apart in the source
# [15] = tested on: human peripheral blood mononuclear cells; conditions: cited from earlier work
# [16] = tested on: endotoxin-induced acute renal failure; conditions: cited from earlier work
# [17] = 15 mg twice a day for six weeks; cited from earlier work
# [18] = tested on: isolated pulmonary artery rings; conditions: normal rats and rats with hypoxia-induced pulmonary hypertension; cited from earlier work
# [19] = tested on: croton oil-induced ear inflammation; conditions: mouse; cited from earlier work
# [20] = tested on: collagen II induced arthritis; conditions: 2 mg/kg twice daily for five days before the onset of arthritis; cited from earlier work
# [21] = tested on: experimental allergic encephalomyelitis; conditions: in vivo; cited from earlier work
smiles,measurement,setting,value
"Nc1nc2c([nH]1)c(=O)n(CC1CC1)c(=O)n2CC1CC1 [BRL-61,063, cipamfylline]",emesis / nausea and vomiting,[1],adverse events of nausea and vomiting
COc1ccc([C@H](Cc2ccncc2)c2ccccc2)cc1OC1CCCC1 [CDP840],"potency at the Sc relative to SB-207,499",[2],significantly higher potency
same,late reactions to inhaled allergen / late-phase response,"[3]; patients with bronchial asthma, oral",suppression; also recorded: significant inhibition
same,adverse events,[3]; treatment of asthma,without any adverse events of nausea or headache
Cc1cc2c3c(c1)C(c1ccccc1)=N[C@@H](NC(=O)c1ccncc1)C(=O)N3CC2 [CI-1018],doses at which no adverse events were reported,[4],up to 400 mg
"CC(C)(O)c1ccc(CNC(=O)c2scnc2Oc2ccc3c(c2)OCO3)c(F)c1 [Example 5, 4-(Benzo[1,3]dioxol-5-yloxy)-thiazole-5-carboxylic acid 2-fluoro-4-(1-hydroxy-1-methyl-ethyl)-benzylamide]",melting point,,117 to 118 °C
CCCC1C(=O)C2=C(C(CC)=NC2C)c2nc(OC)ccc21 [Example D-22888],rhinorrhea,[5]; antigen-challenged pig,inhibit rhinorrhea
same,anti-allergic effect,"[5]; pig, in vivo",strong anti-allergic affect
CCNc1ncn(Cc2ccc(OC)c(OC3CCCC3)c2)c2nc(C(C)C)nc1-2 [Example V-11294A],reduction of TNF levels,[6]; LPS-stimulated ex vivo TNF release,effective
same,reduction of lymphocyte proliferation,[6]; PHA induced,effective
O=S1(=O)CCN(c2nc(NC3CC3)nc(C3CC3)n2)C1 [Formula (0.0.56)],relaxant activity in a guinea-pig trachea model,[7],potent relaxant agents
CC1CC1c1nc(NC2CC2)nc(N2CCOCC2)n1 (centres unmarked) [Formula (0.0.57)],relaxant activity in a guinea-pig trachea model,[7],potent relaxant agents
COc1ccc(S(=O)(=O)C(CCCCc2ccccc2)CC(=O)NO)cc1OC (centres unmarked) [Formula (0.1.36)],IC50,[8],1 nM
COc1ccc(S(=O)(=O)C(CCCCc2ccccc2)C(C)C(=O)NO)cc1 (centres unmarked) [Formula (0.1.37)],IC50,[8],30 nM
CCCn1c(=O)c2[nH]cnc2n(-c2ccc(Cl)cc2)c1=O [LAS31025],effects in dextran sulfate induced colitis,[9],beneficial effects comparable to prednisolone
COc1ccc(C(=O)Nc2c(Cl)cncc2Cl)cc1OC1CCCC1 [RP73401],TNF-α mRNA expression at the pannus/cartilage interface of paw joints,[10],decrease
same,"clinical effect, with reduction in C-reactive protein and IL-6 serum levels",[11],positive trend towards clinical improvement
COc1ccc(CC2CNC(=O)N2)cc1OC1CCCC1 (centres unmarked) [Ro 20-1724],increase in cAMP concentrations,[12],three-fold increase
same,cAMP concentrations over controls,[13],very marked elevation
same,adverse effects,[14],without adverse systemic or cutaneous effects
same,psoriatic lesions compared with vehicle,[14],improve psoriatic lesions
COc1ccc(CC2CNC(=O)N2)cc1OC1CCCC1 (centres unmarked) [Ro-201724],proliferation of HPBM from normal patients and subjects with atopic dermatitis,[15],concentration-related inhibition
same,endotoxin-induced increases in renal vascular resistance and decreases in renal blood flow and glomerular filtration rate,[16]; post-treatment at 10 μg/kg/min,markedly attenuates
same,urinary cAMP excretion,[16]; post-treatment at 10 μg/kg/min,significantly increases
same,survival rates for endotoxin-treated rats,"[16]; rat, in vivo",improve survival rates
"COc1ccc([C@]2(C#N)CC[C@@H](C(=O)O)CC2)cc1OC1CCCC1 [SB-207,499]",FEV1 and forced vital capacity (FVC),[17],increrases
CCCn1c(=O)c2[nH]cnc2n(-c2ccc(Cl)cc2)c1=O [arofylline],effects in models of colitis in the rat,[9]; in vivo,beneficial effects
CCCCn1c(=O)c2c(ncn2CC(C)=O)n(CCCC)c1=O [denbufylline],proliferation of HPBM from normal patients and subjects with atopic dermatitis,[15],concentration-related inhibition
Cc1[nH]c(=O)c(C#N)cc1-c1ccncc1 [milrinone],effect on relaxation of pulmonary artery rings,[18],same effect
COc1ccc(C2CNC(=O)C2)cc1OC1CCCC1 (centres unmarked) [rolipram],lowest topical dose inhibiting croton oil-induced ear inflammation,[19],0.03 mg per ear
same,appearance of arthritic symptoms,[20],significantly delayed
same,proliferation of HPBM from normal patients and subjects with atopic dermatitis,[15],concentration-related inhibition
same,clinical signs and MRI imaging,[21],suppress the appearance of clinical signs and abolish abnormalities in MRI imaging
same,effects in dextran sulfate induced colitis,[9],beneficial effects comparable to prednisolone
same,effect on relaxation of pulmonary artery rings,[18],potentiates the relaxant activities of isoproterenol and forskolin
